Key:
[1] = target: T1, G12D-mutant human KRAS (amino acid residues 1-188) (Homo sapiens, UniProt P01116, G12D); test: KRAS Binding Disruption Assay (AlphaScreen; biotinylated KRpep-2d analogue or RAF1-RBD), G12D; details: KRAS G12D; geometric mean; read-out: KRAS GMean IC50 (uM) MUTATION: G12D
T1 construct: G12D or G12C-mutant human KRAS (amino acid residues 1-188) with FLAG tag; made in house; host or cells: E. coli
Procedure, shortened: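 Mutant KRAS (5-20 nM) incubated 1 h at 25° C with test compound and 5-20 nM biotinylated KRpep-2d analogue or RAF1-RBD in 20 mM HEPES pH 7.5, 100 mM NaCl, 5 mM MgCl2, 0.01% Tween-20, 0.01% BSA.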

[2] = target: T2, G12V-mutant human KRAS (amino acid residues 1-188) (Homo sapiens, UniProt P01116, G12V); test: KRAS Binding Competition Assay (AlphaScreen; biotinylated KRpep-2d analogue), G12V; details: geometric mean, read-out: KRAS GMean IC50 (uM) MUTATION: G12V
T2 construct: G12V-mutant human KRAS (amino acid residues 1-188) with FLAG tag was purified from E. coli; made in house; host or cells: E. coli

`CN(C)c1ccc(Oc2nc(N3C[C@H]4CC[C@@H](C3)N4)c3cc(Cl)c(-c4c(O)cccc4F)c(F)c3n2)cc1` [P-0361, 2-(4-((1R,5S)-3,8-diazabicyclo[3.2.1]octan-3-yl)-6-chloro-2-(4-(dimethylamino)phenoxy)-8-fluoroquinazolin-7-yl)-3-fluorophenol] gave an IC50 [1] of 0.0001 to 10 µM and an IC50 [2] of 0.0001 to 10 µM.
In the case of `CN1C[C@H](F)C[C@H]1COc1nc(N2C[C@H]3CC[C@@H](C2)N3)c2ccc(-c3cc(O)cc4ccccc34)cc2n1` [P-0072, 4-(4-((1R,5S)-3,8-diazabicyclo[3.2.1]octan-3-yl)-2-(((2S,4R)-4-fluoro-1-methylpyrrolidin-2-yl)methoxy)quinazolin-7-yl)naphthalen-2-ol], the IC50 [1] is reported as 0.0001 to 10 µM and the IC50 [2] is reported as 0.0001 to 10 µM.
For `CN1CCC[C@H]1COc1nc(N2[C@@H]3CC[C@H]2CNC3)c2ccc(-c3cccc(C(N)=O)n3)cc2n1` [P-0148, 6-(4-((1R,5S)-3,8-diazabicyclo[3.2.1]octan-8-yl)-2-(((S)-1-methylpyrrolidin-2-yl)methoxy)quinazolin-7-yl)picolinamide], the IC50 [1] was 100 to 1000 µM and the IC50 [2] was 10 to 100 µM.
Compound `CN1CCC[C@H]1COc1nc(N2[C@@H]3CC[C@H]2CN(C(=O)[C@@H]2C[C@@H](O)CN2)C3)c2ccc(-c3cc(O)cc4ccccc34)cc2n1` [P-0202, ((1R,5S)-8-(7-(3-hydroxynaphthalen-1-yl)-2-(((S)-1-methylpyrrolidin-2-yl)methoxy)quinazolin-4-yl)-3,8-diazabicyclo[3.2.1]octan-3-yl)((2S,4R)-4-hydroxypyrrolidin-2-yl)methanone] has an IC50 [1] of 0.0001 to 10 µM and an IC50 [2] of 10 to 100 µM.
For `CN1CCC[C@H]1COc1nc(N2C[C@H]3CC[C@@H](C2)N3C(=O)Cc2cc[nH]n2)c2ccc(-c3cc(O)cc4ccccc34)c(F)c2n1` [P-0470, 1-((1R,5S)-3-(8-fluoro-7-(3-hydroxynaphthalen-1-yl)-2-(((S)-1-methylpyrrolidin-2-yl)methoxy)quinazolin-4-yl)-3,8-diazabicyclo[3.2.1]octan-8-yl)-2-(1H-pyrazol-3-yl)ethan-1-one], the IC50 [1] was 100 to 1000 µM and the IC50 [2] was 10 to 100 µM.
`CN1CCC[C@H]1COc1nc(N2C[C@H]3CC[C@@H](C2)N3c2cnccn2)c2ccc(-c3cc(O)cc4ccccc34)c(F)c2n1` [P-0469, 4-(8-fluoro-2-(((S)-1-methylpyrrolidin-2-yl)methoxy)-4-((1R,5S)-8-(pyrazin-2-yl)-3,8-diazabicyclo[3.2.1]octan-3-yl)quinazolin-7-yl)naphthalen-2-ol] showed an IC50 [1] of 0.0001 to 10 µM and an IC50 [2] of 100 to 1000 µM.
`CN1CC[C@@H](NC(=O)N2[C@H]3CC[C@@H]2CN(c2nc(OC[C@@H]4CCCN4C)nc4c(F)c(-c5cc(O)cc6ccccc56)ccc24)CC3)C1` [P-0246, (1R,6S)-3-(8-fluoro-7-(3-hydroxynaphthalen-1-yl)-2-(((S)-1-methylpyrrolidin-2-yl)methoxy)quinazolin-4-yl)-N-((R)-1-methylpyrrolidin-3-yl)-3,9-diazabicyclo[4.2.1]nonane-9-carboxamide] gave an IC50 [1] of 0.0001 to 10 µM and an IC50 [2] of 10 to 100 µM.
For `CN1CCC[C@H]1COc1nc(N2C[C@H]3CC[C@@H](C2)N3)c2ccc(-c3ccc4c(c3)NC(=O)C4)cc2n1` [P-0174, 6-(4-((1R,5S)-3,8-diazabicyclo[3.2.1]octan-3-yl)-2-(((S)-1-methylpyrrolidin-2-yl)methoxy)quinazolin-7-yl)indolin-2-one], the IC50 [1] was 100 to 1000 µM and the IC50 [2] was 10 to 100 µM.
`CN1CCN(CCCC(=O)N2[C@@H]3CC[C@H]2CN(c2nc(OCC45CCCN4CCC5)nc4c(F)c(-c5cc(O)cc6ccccc56)ccc24)C3)CC1` [P-0187, 1-((1R,5S)-3-(8-fluoro-7-(3-hydroxynaphthalen-1-yl)-2-((tetrahydro-1H-pyrrolizin-7a(5H)-yl)methoxy)quinazolin-4-yl)-3,8-diazabicyclo[3.2.1]octan-8-yl)-4-(4-methylpiperazin-1-yl)butan-1-one] was tested, and the IC50 [1] was 0.0001 to 10 µM and the IC50 [2] was 0.0001 to 10 µM.
In the case of `CN1CCC[C@H]1COc1nc(N2[C@@H]3CC[C@H]2CN(CC(O)CO)C3)c2ccc(-c3cc(O)cc4ccccc34)cc2n1` (stereo partly drawn) [P-0272, 3-((1R,5S)-8-(7-(3-hydroxynaphthalen-1-yl)-2-(((S)-1-methylpyrrolidin-2-yl)methoxy)quinazolin-4-yl)-3,8-diazabicyclo[3.2.1]octan-3-yl)propane-1,2-diol], the IC50 [1] is reported as 0.0001 to 10 µM and the IC50 [2] is reported as 10 to 100 µM.
`CN1CCC[C@H]1COc1nc(N2[C@@H]3CC[C@H]2CNC3)c2ccc(-c3cc(N)cc4ccccc34)cc2n1` [P-0265, 4-(4-((1R,5S)-3,8-diazabicyclo[3.2.1]octan-8-yl)-2-(((S)-1-methylpyrrolidin-2-yl)methoxy)quinazolin-7-yl)naphthalen-2-amine] gave an IC50 [1] of 0.0001 to 10 µM and an IC50 [2] of 0.0001 to 10 µM.
For `CN1CCC[C@H]1COc1nc(N2[C@@H]3CC[C@H]2CN(CC(=O)N2CC(O)C2)C3)c2ccc(-c3cc(O)cc4ccccc34)cc2n1` [P-0275, 1-(3-hydroxyazetidin-1-yl)-2-((1R,5S)-8-(7-(3-hydroxynaphthalen-1-yl)-2-(((S)-1-methylpyrrolidin-2-yl)methoxy)quinazolin-4-yl)-3,8-diazabicyclo[3.2.1]octan-3-yl)ethan-1-one], the IC50 [1] was 10 to 100 µM and the IC50 [2] was 10 to 100 µM.
In the case of `CN1CCC[C@H]1COc1nc(N2[C@@H]3CC[C@H]2CN(C(=O)Cn2ccnc2)C3)c2ccc(-c3cc(O)cc4ccccc34)cc2n1` [P-0207, 1-((1R,5S)-8-(7-(3-hydroxynaphthalen-1-yl)-2-(((S)-1-methylpyrrolidin-2-yl)methoxy)quinazolin-4-yl)-3,8-diazabicyclo[3.2.1]octan-3-yl)-2-(1H-imidazol-1-yl)ethan-1-one], the IC50 [1] is reported as 10 to 100 µM and the IC50 [2] is reported as 10 to 100 µM.
`OCC1(COc2nc(N3C[C@H]4CC[C@@H](C3)N4)c3ccc(-c4cc(O)cc5ccccc45)c(F)c3n2)CC1` [P-0614, 4-(4-((1R,5S)-3,8-diazabicyclo[3.2.1]octan-3-yl)-8-fluoro-2-((l (hydroxymethyl)cyclopropyl)methoxy)quinazolin-7-yl)naphthalen-2-ol] gave an IC50 [1] of 0.0001 to 10 µM and an IC50 [2] of 10 to 100 µM.
Compound `CN1CCC[C@H]1COc1nc(N2[C@@H]3CC[C@H]2CN(C(=O)NCC(N)=O)C3)c2ccc(-c3cc(O)cc4ccccc34)cc2n1` [P-0211, (1R,5S)-N-(2-amino-2-oxoethyl)-8-(7-(3-hydroxynaphthalen-1-yl)-2-(((S)-1-methylpyrrolidin-2-yl)methoxy)quinazolin-4-yl)-3,8-diazabicyclo[3.2.1]octane-3-carboxamide] has an IC50 [1] of 10 to 100 µM and an IC50 [2] of 10 to 100 µM.
In the case of `Cc1cccc2c1N(c1ncc3c(N4C[C@H]5CC[C@@H](C4)N5)nc(OC[C@@H]4CCCN4C)nc3c1F)CC(O)C2` (stereo partly drawn) [P-0436, 1-(4-((1R,5S)-3,8-diazabicyclo[3.2.1]octan-3-yl)-8-fluoro-2-(((S)-1-methylpyrrolidin-2-yl)methoxy)pyrido[4,3-d]pyrimidin-7-yl)-8-methyl-1,2,3,4-tetrahydroquinolin-3-ol], the IC50 [1] is reported as 0.0001 to 10 µM and the IC50 [2] is reported as 100 to 1000 µM.
`CN1CCC[C@H]1COc1nc(N2C[C@H]3CC[C@@H](C2)N3)c2ccc(-c3ccc4cn[nH]c4c3)cc2n1` [P-0162, 4-((1R,5S)-3,8-diazabicyclo[3.2.1]octan-3-yl)-7-(1H-indazol-6-yl)-2-(((S)-1-methylpyrrolidin-2-yl)methoxy)quinazoline] showed an IC50 [1] of 100 to 1000 µM and an IC50 [2] of 100 to 1000 µM.
For `O=C(CCCN1CCCCC1)N1[C@@H]2CC[C@H]1CN(c1nc(OCC34CCCN3CCC4)nc3c(F)c(-c4cc(O)cc5ccccc45)ccc13)C2` [P-0150, 1-((1R,5S)-3-(8-fluoro-7-(3-hydroxynaphthalen-1-yl)-2-((tetrahydro-1H-pyrrolizin-7a(5H)-yl)methoxy)quinazolin-4-yl)-3,8-diazabicyclo[3.2.1]octan-8-yl)-4-(piperidin-1-yl)butan-1-one], the IC50 [1] was 0.0001 to 10 µM and the IC50 [2] was 0.0001 to 10 µM.
Work on `CN1CCC[C@H]1COc1nc(N2C[C@H]3CC[C@@H](C2)N3C(=O)[C@@H]2C[C@@H](O)CN2)c2ccc(-c3cc(O)cc4ccccc34)c(F)c2n1` [P-0425, ((1R,5S)-3-(8-fluoro-7-(3-hydroxynaphthalen-1-yl)-2-(((S)-1-methylpyrrolidin-2-yl)methoxy)quinazolin-4-yl)-3,8-diazabicyclo[3.2.1]octan-8-yl)((2S,4R)-4-hydroxypyrrolidin-2-yl)methanone] yielded an IC50 [1] of 0.0001 to 10 µM and an IC50 [2] of 10 to 100 µM.
For `CN1CCCC[C@H]1COc1nc(N2C[C@H]3CC[C@@H](C2)N3)c2ccc(-c3cc(O)cc4ccccc34)cc2n1` [P-0079, 4-(4-((1R,5S)-3,8-diazabicyclo[3.2.1]octan-3-yl)-2-(((S)-1-methylpiperidin-2-yl)methoxy)quinazolin-7-yl)naphthalen-2-ol], the IC50 [1] was 0.0001 to 10 µM and the IC50 [2] was 10 to 100 µM.
With `Cc1cccc2c1N(c1ccc3c(N4C[C@H]5CC[C@@H](C4)N5)nc(OC[C@@H]4CCCN4C)nc3c1F)CC(O)C2` (stereo partly drawn) [P-0360, 1-(4-((1R,5S)-3,8-diazabicyclo[3.2.1]octan-3-yl)-8-fluoro-2-(((S)-1-methylpyrrolidin-2-yl)methoxy)quinazolin-7-yl)-8-methyl-1,2,3,4-tetrahydroquinolin-3-ol] the IC50 [1] was 0.0001 to 10 µM and the IC50 [2] was 10 to 100 µM.
`NS(=O)(=O)CCC(=O)N1[C@@H]2CC[C@H]1CN(c1nc(OCC34CCCN3CCC4)nc3cc(-c4cc(O)cc5ccccc45)ccc13)C2` [P-0093, 3-((1R,5S)-3-(7-(3-hydroxynaphthalen-1-yl)-2-((tetrahydro-1H-pyrrolizin-7a(5H)-yl)methoxy)quinazolin-4-yl)-3,8-diazabicyclo[3.2.1]octan-8-yl)-3-oxopropane-1-sulfonamide] was tested, and the IC50 [1] was 0.0001 to 10 µM and the IC50 [2] was 0.0001 to 10 µM.

— patent US20230081426A1, “COMPOUNDS AND METHODS FOR KRAS MODULATION AND INDICATIONS THEREFOR” (Plexxikon Inc., priority 2020, published 2023)
